Experiments:
Assay in all cases: relative viability (nuclei count vs DMSO), 5 days (fraction); higher = more cells survive
[1] = compound: CC(=O)c1c(C)c2cnc(Nc3ccc(N4CCNCC4)cn3)nc2n(C2CCCC2)c1=O [Palbociclib]
Method in brief: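 Five library-drug doses, separated by factors of √10, were pinned into 1536-well plates holding lung cancer cell lines after an overnight stay at 37 °C. Cells were fixed, permeabilised and Hoechst-stained in one step after 5 days without medium change, then imaged at 4×. Viability compares treated-well with vehicle-well nuclei, counted in MetaXpress, as a median across plates. Passing plates had control CV below 25% and at least one doubling.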

[2] = compound: CC(=O)c1c(C)c2cnc(Nc3ccc(N4CCNCC4)cn3)nc2n(C2CCCC2)c1=O [Palbociclib] + COc1cc2c(Oc3ccc(NC(=O)C4(C(=O)Nc5ccc(F)cc5)CC4)cc3F)ccnc2cc1OCCCN1CCOCC1 [Foretinib] (partner 0.25 µM)
Method in brief: (§1)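 One day after seeding in 1536-well plates, lung cancer cell lines were dosed by pin tool. Dosing was either single-drug or a fixed anchor-drug dose plus five library-drug doses (not always all listed) in √10 steps. After 5 days, nuclei were stained in one fix-and-stain step and counted on 4× images, and relative viability is the nuclei count of treated wells over that of vehicle wells, given as the median of duplicate plates.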

[3] = compound: CC(=O)c1c(C)c2cnc(Nc3ccc(N4CCNCC4)cn3)nc2n(C2CCCC2)c1=O [Palbociclib] + Nc1nc2[nH]cc(CCc3ccc(C(=O)N[C@@H](CCC(=O)O)C(=O)O)cc3)c2c(=O)[nH]1 [Pemetrexed] (partner 0.2 µM)
Method in brief: as §1

| Cell Line | relative viability ([1]; 0.01 µM) | relative viability ([1]; 0.03162 µM) | relative viability ([1]; 0.1 µM) | relative viability ([1]; 0.3162 µM) | relative viability ([1]; 0.5 µM, anchor plate) | relative viability ([1]; 1 µM) | relative viability ([2]; first compound 0.01 µM) | relative viability ([2]; first compound 0.03162 µM) | relative viability ([2]; first compound 0.1 µM) | relative viability ([2]; first compound 0.3162 µM) | relative viability ([2]; first compound 1 µM) | relative viability ([3]; first compound 0.01 µM) | relative viability ([3]; first compound 0.03162 µM) | relative viability ([3]; first compound 0.1 µM) | relative viability ([3]; first compound 0.3162 µM) | relative viability ([3]; first compound 1 µM) |
| --- | --- | --- | --- | --- | --- | --- | --- | --- | --- | --- | --- | --- | --- | --- | --- | --- |
| NCI-H2085 | 0.979 | 0.966 | 0.879 | 0.805 | 0.475 | 0.574 | 1.03 | 0.875 | 0.744 | 0.599 | 0.534 | 0.823 | 0.798 | 0.752 | 0.6 | 0.485 |
| NCI-H2087 | 1.08 | 0.546 | 0.815 | 0.586 | 0.242 | 0.364 | 0.951 | – | 0.838 | 0.631 | 0.47 | 0.683 | 0.664 | 0.621 | 0.537 | 0.393 |
| NCI-H2126 | 0.996 | 0.649 | 0.792 | 0.694 | 0.353 | 0.464 | 1.28 | 0.93 | 0.904 | 0.78 | 0.603 | 0.725 | 0.581 | 0.509 | 0.51 | 0.345 |
| NCI-H2170 | 0.993 | 0.856 | 0.94 | 0.894 | 0.382 | 0.704 | 1.03 | 0.969 | 0.955 | 0.889 | 0.852 | 0.269 | 0.277 | 0.224 | 0.242 | 0.222 |
| NCI-H2228 | 1.01 | 0.844 | 0.937 | 0.899 | 0.85 | 0.795 | 0.773 | 0.782 | 0.867 | 0.787 | 0.781 | 0.312 | 0.352 | 0.337 | 0.341 | 0.346 |
| NCI-H2342 | 1.01 | 0.846 | 0.849 | 0.785 | 0.527 | 0.621 | 0.986 | 0.974 | 0.749 | 0.995 | 0.662 | 0.766 | 0.691 | 0.861 | 0.747 | 0.556 |
| NCI-H2347 | 1.05 | 0.905 | 0.87 | 0.775 | 0.424 | 0.684 | 0.917 | – | 0.844 | – | 0.546 | 0.39 | 0.407 | 0.368 | 0.413 | 0.386 |
| NCI-H2405 | 0.996 | 0.797 | 0.842 | 0.889 | 0.52 | 0.654 | 1.02 | 0.972 | 0.884 | 0.822 | 0.675 | 1.06 | 1.14 | 0.941 | 0.799 | 0.523 |
| NCI-H3122 | 0.977 | 0.944 | 0.866 | 0.797 | 0.192 | 0.456 | 0.854 | 0.936 | 0.892 | 0.7 | 0.553 | 0.205 | 0.184 | 0.192 | 0.186 | 0.188 |
| PC-3 [JPC-3] | 1.08 | 0.895 | 0.855 | 0.761 | 0.536 | 0.59 | 1.1 | 0.955 | 0.884 | 0.855 | 0.64 | 1.14 | 1.06 | 0.952 | 0.878 | 0.428 |
| PC-14 | 1.13 | 0.847 | 0.841 | 0.873 | 0.514 | 0.503 | 0.944 | 0.865 | 0.819 | 0.868 | 0.733 | 0.143 | 0.142 | 0.137 | 0.148 | 0.158 |
| RERF-LC-KJ | 1.02 | 0.871 | 0.968 | 1.02 | 1.09 | 1.02 | 0.868 | 0.761 | 0.88 | 0.861 | 0.898 | 0.437 | 0.45 | 0.432 | 0.486 | 0.469 |
| SK-LU-1 | 1.05 | 0.912 | 0.828 | 0.794 | 0.385 | 0.563 | 0.825 | 0.74 | 0.571 | 0.552 | 0.361 | 1.02 | 0.96 | 0.836 | 0.753 | 0.556 |
| SK-MES-1 | 0.931 | 0.852 | 0.683 | 0.648 | 0.327 | 0.361 | 1.09 | 0.834 | 0.781 | 0.687 | 0.502 | 0.857 | 0.802 | 0.665 | 0.596 | 0.363 |
| SW 900 | 1.01 | – | 0.768 | 0.565 | 0.565 | 0.541 | 0.902 | – | 0.844 | 0.649 | 0.625 | 0.46 | – | 0.528 | 0.51 | 0.422 |
| SW 1573 | 0.994 | 0.789 | 0.8 | 0.723 | 0.419 | 0.617 | 0.867 | 1 | 0.862 | 0.742 | 0.785 | 0.773 | 0.729 | 0.646 | 0.681 | 0.461 |
| UMC-11 | 1 | 0.824 | 0.709 | 0.575 | 0.332 | 0.291 | 1.01 | 0.86 | 0.698 | 0.459 | 0.275 | 0.795 | 0.726 | 0.594 | 0.473 | 0.308 |

— the supplement of paper PMC10307832
